Assay results reported in ChEMBL document CHEMBL2040712, “Design and synthesis of a second series of triazole-based compounds as potent dual mPGES-1 and 5-lipoxygenase inhibitors” (Eur J Med Chem, 2012).

Legend:
[1] = species: Rattus norvegicus; assay: Inhibition of mPGES1 in rat microsomal membranes assessed as inhibition of PGE2 production at 10 uM after 40 seconds by enzyme immunoassay; format: microsomes; conditions: Microsome
[2] = molecular target: T1, Prostaglandin E synthase (Homo sapiens, UniProt O14684); assay: Inhibition of mPGES1 in IL-1beta-stimulated human A549 cell assessed as inhibition of PGE2 production preincubated for 15 mins before substrate addition by RP-HPLC method
T1 sequence (O14684 whole entry): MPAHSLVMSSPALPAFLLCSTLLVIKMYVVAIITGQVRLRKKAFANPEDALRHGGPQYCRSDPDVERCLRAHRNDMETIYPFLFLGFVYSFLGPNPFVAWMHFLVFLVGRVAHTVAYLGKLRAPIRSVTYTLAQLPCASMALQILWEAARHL

[3] = molecular target: T2, Prostaglandin E synthase (Homo sapiens) (UniProt O14684); assay: Inhibition of mPGES1 in IL-1beta-stimulated human A549 cell assessed as remaining activity measuring of PGE2 level at 10 uM preincubated for 15 mins before substrate addition by RP-HPLC method
T2 sequence (whole entry): T1 sequence (O14684 whole entry)

[4] = molecular target: T3, Polyunsaturated fatty acid 5-lipoxygenase (Homo sapiens, UniProt P09917); assay: Inhibition of human recombinant 5-lipoxygenase in cell-free system preincubated for 10 mins before substrate arachidonic acid addition measured after 10 mins by RP-HPLC method
T3 sequence (P09917 whole entry): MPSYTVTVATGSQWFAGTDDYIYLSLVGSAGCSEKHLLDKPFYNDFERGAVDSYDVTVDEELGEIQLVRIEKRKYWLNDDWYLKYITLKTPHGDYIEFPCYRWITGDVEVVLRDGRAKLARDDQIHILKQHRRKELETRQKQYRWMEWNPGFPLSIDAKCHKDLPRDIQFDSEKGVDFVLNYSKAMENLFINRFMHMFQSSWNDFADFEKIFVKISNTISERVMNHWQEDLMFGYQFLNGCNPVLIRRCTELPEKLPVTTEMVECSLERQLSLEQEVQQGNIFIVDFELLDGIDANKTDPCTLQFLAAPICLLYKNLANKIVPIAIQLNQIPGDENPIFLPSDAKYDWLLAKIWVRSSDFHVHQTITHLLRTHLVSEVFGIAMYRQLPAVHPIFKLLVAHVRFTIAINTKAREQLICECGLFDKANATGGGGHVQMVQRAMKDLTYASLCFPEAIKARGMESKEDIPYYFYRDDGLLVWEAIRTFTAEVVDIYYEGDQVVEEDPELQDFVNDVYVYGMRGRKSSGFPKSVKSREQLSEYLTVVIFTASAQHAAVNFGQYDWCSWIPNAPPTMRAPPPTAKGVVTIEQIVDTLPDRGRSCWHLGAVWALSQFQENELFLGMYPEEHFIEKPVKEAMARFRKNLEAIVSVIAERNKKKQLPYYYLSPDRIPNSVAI

[5] = molecular target: T3, Polyunsaturated fatty acid 5-lipoxygenase; assay: Inhibition of 5-lipoxygenase in human neutrophil preincubated for 15 mins before substrate arachidonic acid addition measured after 10 mins by HPLC method
[6] = molecular target: T4, Polyunsaturated fatty acid 5-lipoxygenase (Homo sapiens) (UniProt P09917); assay: Inhibition of 5-lipoxygenase in human neutrophil assessed as remaining activity at 10 uM preincubated for 15 mins before substrate arachidonic acid addition measured after 10 mins by HPLC method
T4 sequence (whole entry): T3 sequence (P09917 whole entry)

[7] = molecular target: T4, Polyunsaturated fatty acid 5-lipoxygenase (Homo sapiens); assay: Inhibition of human recombinant 5-lipoxygenase in cell-free system assessed as remaining activity at 10 uM preincubated for 10 mins before substrate arachidonic acid addition measured after 10 mins by RP-HPLC method

Row | SMILES | inhibition [1] [%] | IC50 [2] [µM] | Activity [3] [%] | IC50 [4] [µM] | IC50 [5] [µM] | Activity [6] [%] | Activity [7] [%]
1 | CC(C)c1ccc2c(c1)c(SC(C)(C)C)c(CC(C)(C)C(=O)O)n2Cc1ccc(Cl)cc1 | 82 |  |  |  |  |  | 
2 | O=C(O)c1ccc(Cn2cc(-c3ccc(-c4ccccc4)cc3)nn2)c([N+](=O)[O-])c1 |  | < 3.2 |  |  |  |  | 
3 | O=C(O)c1ccc(Cn2cc(-c3ccc(-c4ccc(O)cc4)cc3)nn2)c([N+](=O)[O-])c1 |  | > 10 | 74.2 | 6.8 | > 10 | 108 | 
4 | O=C(O)c1ccc(Cn2cc(-c3ccc(-c4cccc(O)c4)cc3)nn2)c([N+](=O)[O-])c1 |  | > 10 | 55.6 | > 10 | > 10 | 114 | 80.2
5 | O=C(O)c1ccc(Cn2cc(-c3ccc(-c4cccc(C(=O)N5CCOCC5)c4)cc3)nn2)c([N+](=O)[O-])c1 |  | > 10 | 88.9 | > 10 | > 10 | 125 | 62.7
6 | Nc1cc(C(=O)O)ccc1Cn1cc(-c2ccc(-c3ccccc3COc3cc(C(F)(F)F)ccc3Cl)cc2)nn1 |  | 0.68 |  | 0.9 | 2.1 |  | 
7 | O=C(O)c1ccc(Cn2cc(-c3ccc(-c4ccccc4COc4cc(C(F)(F)F)ccc4Cl)cc3)nn2)c([N+](=O)[O-])c1 |  | 1.2 |  | 2 | 5.3 |  | 
8 | O=C(O)c1ccc(Cn2cc(-c3ccc(-c4cccs4)cc3)nn2)c([N+](=O)[O-])c1 |  | 5.5 |  | > 10 | > 10 | 89.7 | 52.2
9 | O=C(O)c1ccc(Cn2cc(-c3ccc(-c4ccccc4COc4cc(C(F)(F)F)ccc4Cl)cc3)nn2)cc1 |  | 1 |  | 1.47 | 2 |  | 
10 | Nc1ccc(-c2ccc(-c3cn(Cc4ccc(C(=O)O)cc4[N+](=O)[O-])nn3)cc2)cc1 |  | > 10 | 65.5 | > 10 | > 10 | 100 | 63.5
11 | O=C(O)c1cccc(-c2ccc(-c3cn(Cc4ccc(C(=O)O)cc4[N+](=O)[O-])nn3)cc2)c1 |  | > 10 | 82.1 | > 10 | > 10 | 124 | 74.7
12 | CN(C)c1ccc2cc(S(=O)(=O)Nc3ccc(-c4ccc(-c5cn(Cc6ccc(C(=O)O)cc6[N+](=O)[O-])nn5)cc4)cc3)ccc2c1 |  | > 10 | 72.5 | 6.1 | > 10 | 96.5 | 
13 | O=C(O)c1ccc(S(=O)(=O)n2cc(-c3ccc(-c4ccccc4COc4cc(C(F)(F)F)ccc4Cl)cc3)nn2)cc1 |  | > 10 | 78.6 | 1.96 | 1.2 |  | 
14 | O=C(O)c1ccc(Cn2cc(-c3ccc(-c4ccccc4C(=O)O)cc3)nn2)c([N+](=O)[O-])c1 |  | > 10 | 94.1 | > 10 | > 10 | 65.9 | 75.3
15 | COc1ccc(-c2ccc(-c3cn(Cc4ccc(C(=O)O)cc4[N+](=O)[O-])nn3)cc2)cc1CN1CCOCC1 |  | > 10 | 87.4 | > 10 | > 10 | 111 | 84.9
16 | O=C(O)c1ccc(-c2ccc(-c3cn(Cc4ccc(C(=O)O)cc4[N+](=O)[O-])nn3)cc2)cc1 |  | > 10 | 93 | > 5 | > 5 |  | 
17 | COc1cc(-c2ccc(-c3cn(Cc4ccc(C(=O)O)cc4[N+](=O)[O-])nn3)cc2)cc(OC)c1OC |  | > 10 | 54.3 | > 10 | > 10 | 90.2 | 64.3
